Data taken from article PMC7170889, “Synthesis and evaluation of designed PKC modulators for enhanced cancer immunotherapy” (Nature Communications, 2020).

Experiments:
PKCδ-GFP fusion protein = target: T1, PKCδ-GFP fusion protein (Homo sapiens, UniProt Q05655); experiment: PKCδ-GFP translocation assay in living CHO-k1 cells (confocal microscopy); format: cell-based, Chinese hamster; settings: for minimum effective concentration required to induce translocation of PKC-GFP to the membrane: tested at 200 and 1000 nM
T1 construct: expressed in transfected cells; host or cells: CHO-k1 (Chinese hamster ovary, ATCC)
Protocol: (§1) With a panel of compounds bearing diverse functionality at C13, we began to explore how these modifications affect PKC binding and biological function. Because an obvious prerequisite for PKC pathway involvement is binding to PKC, compounds were initially evaluated for PKC affinity in a cell-free competitive binding assay with tritiated phorbol dibutyrate ([^3H]-PDBu). Assays were performed with representative members of both the conventional (PKCα) and novel (PKCδ) PKC families. Subsequently, compounds were assayed for PKC isoform translocation in real time in living cells using an optical assay. Translocation to the plasma membrane is the hallmark of PKC activation[18],[57],[60] and therefore monitoring the subcellular localization of a PKCδ-GFP fusion protein via confocal microscopy offers a convenient method for determining whether a compound enters a cell and engages its PKC isoform target. Finally and of clinical significance, we also determined the effect of compounds on CD22 surface expression in vitro in NALM6 cells, an ALL cell line previously studied in connection with CD22-targeted CAR T cell therapy, and two additional lymphoma cell lines[11],[31],[65].
Scale bar represents 25 μm. Experiments performed in n = 3 biological replicates. b–d Cytosolic fluorescence normalized to t = 0 (time immediately prior to addition of compound to media) and plotted against time. Error bars excluded for clarity (data presented as the mean of n = 3 biological replicates). Individual curves with error bars included in Supplementary Information.
PKCδ-GFP Translocation Assay Protocol
Chinese hamster ovary factor K1 (CHO-k1, ATCC) cells were cultured in F-12 Kaighn’s media (Hyclone, 10% fetal bovine serum, 1% penicillin/streptomycin added, reffered to as F-12 +/+ below) at 37 ° C in an incubator (5% CO2). Cell cultures were maintained by splitting cells 1:3 when they reached ~75-100% confluence (every 2-3 days) as follows:
(Gibco) was used to remove the cells from the culture flask (T75, Falcon). 1 mL of the cell suspension was then added to 9 mL of fresh F-12 +/+ and the sample was sub-cultured until reaching confluence (~2-3 days).
Cells were counted using a Countess II Automated Cell Counter (Fisher). The cell suspension was diluted to 240,000 cells/mL with fresh F-12 +/+ and 2.5 mL of this diluted stock was added to one well in a 6-well plate. The cells were then cultured for 24 hours.
Cells were transfected with Lipofectamine 2000 reagent (Invitrogen) or DA 13:11 at a 10:1 charge […]
F-12 +/+ was aspirated and cells were washed with F-12 -/-. 2 mL of fresh F-12 -/- was then added to each well, taking care not to disturb adherent cells. For each well of CHO-k1 cells, 12.5 µL Lipofectamine 2000 reagent (Invitrogen) was added to 250 µL Opti-MEM reduced serum media (Invitrogen) in a polypropylene tube and incubated for 20 minutes at RT. Meanwhile, for each well, 4 µg of PKCδ-GFP pDNA and 250 µL Opti-MEM reduced serum media was added to a separate polypropylene tube. 250 µL of the Lipofectamine 2000 suspension was added to the DNA suspension and the solution incubated for 30 minutes at RT. 500 µL of the Lipofectamine/DNA suspension was added to the respective wells of the 6-well plate. The cells were then incubated at 37 ° C (5% CO2) for ~24 hrs.
F-12 +/+ was aspirated and cells were washed with F-12 -/-. 2.4 mL of fresh F-12 -/- was then added to each well, taking care not to disturb adherent cells. A 4 µg aliquot of PKCδ-GFP pDNA was added to PBS (pH 5.5, final volume 100 µL). 5.6 µL of DA 13:11 (2 mM stock in DMSO) was then added to the DNA solution, and the mixture was gently mixed (by flicking) for 20 seconds, at which point it was added directly to the respective wells of the 6-well plate.

PKCδ = target: T2, PKCδ (Homo sapiens, UniProt Q05655); experiment: PKC competitive binding assay with [3H]-phorbol dibutyrate (PKCδ); settings: cell-free, competition with [3H]-PDBu, PS vesicles
T2 construct: purchased Invitrogen
Protocol: as §1
(§2) PKC Binding Assay Protocol […]
(§3) competition with 3H-phorbol-12,13-dibutyrate (3H-PDBu) as described below. This procedure entails a glass-fiber filtration method to determine bound radioligand.
(§4) Preparation of PKC binding assay buffer
(§5) To a 50 mL polypropylene tube was added Tris-HCl (pH 7.4, 1 M, 1 mL), KCl (1 M, 2 mL), CaCl2 (0.1 M, 30 μL), and bovine serum albumin (BSA, 40 mg, Sigma-Aldrich). This mixture was diluted to 20 mL with deionized H2O and mixed gently. The buffer was stored on ice until use. The final […]
(§6) Supplementary Table1. PKC binding assay buffer composition.
(§7) Preparation of phosphatidylserine (PS) vesicles
(§8) For every two assays, 3.5 mg phosphatidylserine (Avanti Polar Lipids, porcine, 25 mg/mL CHCl3 solution) was concentrated by removing chloroform under a stream of nitrogen followed by reduced pressure. The solid PS was suspended as vesicles in freshly prepared PKC binding assay buffer (3.5 mL) by sonicating six times for 30 sec, with a 30 sec rest between sonications (Branson Sonifier 250, power = 2, 50% duty cycle). The resulting milky cloudy mixture (1 mg/mL) was stored […]
(§9) Preparation of PKC isoform solution
Assay PKC was prepared by dissolving a 4 μg aliquot of the indicated recombinant human PKC isoform (Invitrogen) into 11.6 mL of PKC binding assay buffer (this amount is sufficient for two assays). The diluted PKC was stored on ice for immediate use. […]
μCi/mmol) was diluted 10-fold with DMSO. The resulting 500 nM stock solution was further diluted with DMSO to 30 nM.
(§10) Preparation of analog compound dilutions
(§11) Compound dilutions were prepared by serially diluting from a chosen "high" concentration by factors of 3 or 4. For each analog compound, seven concentrations were used to define the […]
(§12) To a polypropylene tube was added 3.3 mL of 1 mg/mL PS vesicles solution, 11 mL of PKC isoform solution, and 1.1 mL of 30 nM 3H-PDBu solution were added. The resulting solution was vortexed to mix and stored on ice.
(§13) PKC binding assay protocol
(§14) - Glass-fiber filters (Whatman GF/B) were prepared by soaking them in a solution of aqueous polyethyleneimine (10% by vol, 18 mL) in deionized water (600 mL) for ≥1h.
(§15) - 500 mL "rinsing buffer" of 20 mM Tris, pH 7.4 was cooled on ice for the duration of the incubation period and for the remainder of the assay.
Triplicate data points were obtained for each analog concentration. For each data point, 280 μL of "Master Mix" Solution and 20 μL of analog compound at a specified concentration were added to a polypropylene tube. Non-specific 3H-PDBu binding was assessed in triplicate by substitution […]
μM). Maximal 3H-PDBu binding was assessed in triplicate by substitution of the analog compound with 20 μL DMSO. The solutions were vortexed to mix, incubated at 37 °C for 10 min, and […]

PKC = PKC competitive binding assay, isoform not specified; parameters: species or system human; settings: charged substituents at C13; Table 1 data
Protocol: as §1, §2, §3, §4, §5, §6, §7, §8, §9
(§16) Assay PKC was prepared by dissolving a 4 μg aliquot of the indicated recombinant human PKC isoform (Invitrogen) into 11.6 mL of PKC binding assay buffer (this amount is sufficient for two assays). The diluted PKC was stored on ice for immediate use.
(§17) Preparation of 3H-PDBu solution
(§18) 3H-PDBu (American Radiolabeled Chemicals, Inc.; 1 mCi/mL acetone solution; specific activity: […]) was diluted 10-fold with DMSO. The resulting 500 nM stock solution was further diluted with DMSO to 30 nM.
as §10, §11, §12, §13
- Glass-fiber filters (Whatman GF/B) were prepared by soaking them in a solution of […]

PKCα = target: T3, PKCα (Homo sapiens, UniProt P17252); experiment: PKC competitive binding assay with [3H]-phorbol dibutyrate (PKCα); settings: cell-free, competition with [3H]-PDBu, PS vesicles; read-out: Ki PKCα
T3 construct: purchased Invitrogen
Protocol: as §1, §2, §3, §4, §5, §6, §7, §8, §9, §16, §17, §18, §10, §11, §12, §13, §14, §15
Triplicate data points were obtained for each analog concentration. For each data point, 280 μL of "Master Mix" Solution and 20 μL of analog compound at a specified concentration were added to a polypropylene tube. Non-specific 3H-PDBu binding was assessed in triplicate by substitution

[1] = system: CD22 surface expression in NALM6 cells; experiment: CD22 surface expression in NALM6 cells (flow cytometry); format: cell-based, human; settings: NALM6 cells at 1 nM relative to DMSO control; 24 h incubation, washout, 24 h sub-culture; n = 3
Protocol: CD22 Surface Expression Protocol – NALM6 Cells […]
unless otherwise noted below) at 37 ° C in an incubator (5% CO2). Cell cultures were maintained […]
Cell suspension from a confluent T75 flask (Fisher) was transferred to a 15 mL falcon tube and centrifuged at 1100 rpm for 7 minutes. The supernatant was aspirated, and the cell pellet was […]
Cells were counted using a Countess II Automated Cell
199 µL of this stock was added to 24 wells (enough for triplicate measurements for 8 different experimental conditions) in a 96-well plate. Dosing was […]
each experiment. 1 µL of DMSO or the appropriate stock solution of compound in DMSO was added to each well. Cells were incubated for 24 hours, at which point the cell suspensions were transferred to 1.5 mL Eppendorf tubes and diluted with 1.0 mL of PBS (Hyclone, without Ca2+ or Mg2+). Samples were centrifuged at 2000 rpm for 5 min at RT. The supernatant was aspirated, […]
Cells were sub-cultured between 2 […]
surface expression was assayed by flow cytometry.
Cells from one well were counted using a Countess II Automated Cell Counter (Fisher). ~200,000 – 300,000 cells from each well were added to 1.5 mL Eppendorf tubes containing PBS (final volume ~1.2 mL). The cell suspensions were centrifuged at 1500 rpm for 7 minutes at 4 °C. The supernatant was aspirated, and the cell pellet was resuspended in 99 µL of pre-chilled FACS […]
buffer (0.5% w/v BSA in PBS). […]
minutes. Samples were then diluted with an additional 1.0 mL of FACS buffer and centrifuged at 1500 rpm for 7 minutes at 4 °C. The supernatant was aspirated, the cell pellets were resuspended in 200 µL FACS buffer, and the resulting suspensions were transferred to FACS tubes (Fisher, […]
Cells were stained with DAPI and CD22 surface expression was analyzed using the FACScan Analyzer at the Stanford Shared FACS Facility. Data analysis was performed using FlowJo and Microsoft Excel.

T1 sequence (Q05655 whole entry, the tested form may be a part): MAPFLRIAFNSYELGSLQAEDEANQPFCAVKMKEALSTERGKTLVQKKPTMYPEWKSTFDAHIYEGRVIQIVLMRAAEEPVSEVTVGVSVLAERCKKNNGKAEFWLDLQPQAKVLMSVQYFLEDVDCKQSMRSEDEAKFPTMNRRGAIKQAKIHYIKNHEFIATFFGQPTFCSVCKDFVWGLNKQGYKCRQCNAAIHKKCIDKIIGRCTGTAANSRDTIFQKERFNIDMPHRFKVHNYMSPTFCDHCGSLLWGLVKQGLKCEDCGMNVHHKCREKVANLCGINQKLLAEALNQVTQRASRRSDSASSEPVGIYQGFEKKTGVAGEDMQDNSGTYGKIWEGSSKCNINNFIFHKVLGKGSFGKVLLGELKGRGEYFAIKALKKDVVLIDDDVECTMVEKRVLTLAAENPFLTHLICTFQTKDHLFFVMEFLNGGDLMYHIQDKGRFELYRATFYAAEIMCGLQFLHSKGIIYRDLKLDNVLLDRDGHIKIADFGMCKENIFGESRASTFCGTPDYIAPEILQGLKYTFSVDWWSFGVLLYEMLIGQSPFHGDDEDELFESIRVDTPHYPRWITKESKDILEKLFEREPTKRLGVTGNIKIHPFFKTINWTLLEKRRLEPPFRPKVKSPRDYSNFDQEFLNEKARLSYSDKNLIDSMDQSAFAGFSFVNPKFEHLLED
T2 sequence (Q05655 whole entry): as the sequence (Q05655 whole entry, the tested form may be a part) above

**Q.** Which results are given for `CCCC=CC=CC(=O)OC1C(=CC(=O)OC)CC2CC(C(C)O)OC(=O)CC(O)CC3CC(OC(C)=O)C(C)(C)C(O)(CC4CC(OC(=O)CN(C)C)CC(C=CC(C)(C)C1(O)O2)O4)O3` (stereo not shown) [SUW212]?
**A.** Emax at 1 µM (PKCδ-GFP fusion protein; CHO-K1, 1000 nM compound, CHO-k1 cells, n = 3, read-out: % Translocation (maximum translocation of PKCδ-GFP to the plasma membrane)): 50%; minimum effective concentration required to induce translocation of PKC-GFP to the membrane (PKCδ-GFP fusion protein; CHO-k1 cells): 1000 nM; sustained translocation of PKC (PKCδ-GFP fusion protein; at up to 1000 nM): did not achieve sustained translocation of PKC; Ki (PKCδ): 24 nM; decrease in affinity to PKC (PKC): 20-100 fold; Ki (PKCα): 40 nM

**Q.** Which results are given for `CCCC=CC=CC(=O)OC1C(=CC(=O)OC)CC2CC(C(C)O)OC(=O)CC(O)CC3CC(OC(C)=O)C(C)(C)C(O)(CC4CC(=CC(=O)OCc5ccccc5)CC(C=CC(C)(C)C1(O)O2)O4)O3` (stereo not shown) [SUW220]?
**A.** % Translocation (maximum translocation of PKCδ-GFP to the plasma membrane) (PKCδ-GFP fusion protein; 1000 nM compound, CHO-k1 cells, n = 3): 50%; minimum effective concentration required to induce translocation of PKC-GFP to the membrane (PKCδ-GFP fusion protein; CHO-k1 cells): 1000 nM

**Q.** How did the Emax at 0.2 µM (PKCδ-GFP fusion protein; CHO-K1, 200 nM compound, CHO-k1 cells, n = 3, read-out: % Translocation (maximum translocation of PKCδ-GFP to the plasma membrane)) turn out when `CCCCCCCC(=O)O[C@H]1/C(=C/C(=O)OC)C[C@H]2C[C@H]([C@@H](C)O)OC(=O)C[C@H](O)C[C@@H]3C[C@H](OC(C)=O)C(C)(C)[C@](O)(C[C@@H]4C[C@@H](C)C[C@H](/C=C/C(C)(C)[C@]1(O)O2)O4)O3` [SUW226] was run?
**A.** 75%

**Q.** What about the “minimum effective concentration required to induce translocation of PKC-GFP to the membrane” value (PKCδ-GFP fusion protein; CHO-k1 cells) of the same compound?
**A.** 200 nM

**Q.** How did the “% Translocation (maximum translocation of PKCδ-GFP to the plasma membrane)” value (PKCδ-GFP fusion protein; 200 nM compound, CHO-k1 cells, n = 3) turn out when `C=CCOC(=O)/C=C1\C[C@H]2C[C@]3(O)O[C@H](C[C@@H](O)CC(=O)O[C@@H]([C@@H](C)O)C[C@@H]4C/C(=C\C(=O)OC)[C@H](OC(=O)/C=C/C=C/CCC)[C@@](O)(O4)C(C)(C)/C=C/[C@@H](C1)O2)C[C@H](OC(C)=O)C3(C)C` [SUW230] was run?
**A.** 65%

**Q.** What about the “minimum effective concentration required to induce translocation of PKC-GFP to the membrane” value (PKCδ-GFP fusion protein; CHO-k1 cells) of the same compound?
**A.** 200 nM

**Q.** What about the “Fold increase CD22 expression” value [1] of the same compound?
**A.** 1.62 fold
